In US12384795B2, “Pyrimido[5,4-b]pyrrolizin compound, optical isomer thereof, preparation method therefor and use thereof” (SHANGHAI INSTITUTE OF MATERIA MEDICA, CHINESE ACADEMY OF …, priority 2019, dated 2025):
“And” between values parts separate entries of the source, which are not always exact repeats. Identical values can stand only once.

What was measured:
[1] = test system: Human B lymphoma cell Ramos (Burkitt lymphoma); experiment: Inhibition of proliferation of Ramos cells in vitro (MTT, 72 h); type: cell-based
Experimental: (§1) Cell suspensions (Ramos: 10000 cells/well; TMD8: 12000 cells/well) were seeded in a 96-well plate, placed in an incubator for 2 hours at 37° C., after the cell state was stabilized, different concentrations of tested compounds were added to each well (each concentration was set with 3 duplicate wells), and blank control (only containing culture solution, but not containing cells), negative control (only adding cells, but not adding compounds) and positive compound control were set at the same time. After 72 h treatment, 20 μL MTT (5 mg/ml) was added to each well and incubated for 4 h at 37° C. 100 μL triple solution (10% SDS, 5% isobutanol, 0.01 M HCl) was added and placed overnight at 37° C. The OD value was measured with microplate enzyme-labeled instrument SPECTRA MAX Plus 384 with adjustable wavelength at 570 nm.
(§2) The inhibition rate of the compound was obtained by the following formula: […]
(§3) The IC50 value was obtained by four-parameter regression using the software attached to the microplate reader.

[2] = test system: Human diffuse large B lymphoma cell TMD8; experiment: Inhibition of proliferation of TMD8 cells in vitro (MTT, 72 h); type: cell-based
Experimental: as §1, §2, §3

[3] = Further study of metabolism of earlier compounds; type: in vitro ADME; conditions: 4-position of terminal phenyl easy to be oxidized
BTK = BTK (Homo sapiens, UniProt Q06187); conditions: disclosed in patent CN108101905A; cited from earlier work
[4] = molecular target: BTK tyrosine kinase protein (Homo sapiens, UniProt Q06187); experiment: Inhibitory activity evaluation of Bruton kinase (BTK) at molecular level (ELISA); type: biochemical; conditions: ATP 5 μM
Experimental: The enzyme reaction substrate Poly (Glu, Tyr)4:1 was diluted with potassium-free PBS (10 mM sodium phosphate buffer, 150 mM NaCl, pH 7.2-7.4) to 20 μg/ml, and coated enzyme plate. After reacting at 37° C. for 12-16 hours, the plate was washed three times with 200 μL/well T-PBS (PBS containing 0.1% Tween-20) and dried in 37° C. oven for 1-2 hours. 49 μL/well ATP solution (final concentration was 5 μM) diluted with a reaction buffer (50 mM HEPES pH 7.4, 50 mM MgCl2, 0.5 mM MnCl2, 0.2 mM Na3VO4, 1 mM DTT) was firstly added into the substrate-coated plate. 1 μL compound to be tested (compound well) or DMSO with corresponding concentration (negative control well) was added into each well, and enzyme-free control well was set up for each experiment. Then 50 μL of BTK tyrosine kinase protein diluted with reaction buffer was added to start the reaction.
The above reaction system was placed in a shaking table (100 rpm) for 1 hour at 37° C., then the plate was washed with T-PBS for three times, and the primary antigen PY99 100 μL/well (Santa Cruz) was added, and the reaction was carried out in a shaking table for 0.5 hours at 37° C. […]

[5] = test system: human lymphoma TMD8 xenograft; experiment: Anti-tumor activity in vivo, TMD8 xenograft tumor model; parameters: species or system Mice; conditions: for Tumor volume: 17th day, mean ± SEM
Experimental: (§4) • 1) Species: Mice • 2) Strain: CB-17 SCID • 3) Age and body weight: 6-8 weeks; 18-22 g • 4) Sex: Female • 5) Supplier: Beijing Vital River Laboratory Animal Technology Co., Ltd. REC-1 Xenograft Tumor Model • 1) Species: Mice • 2) Strain: BALB/c nude mice • 3) Age and body weight: 6-8 weeks; 17-20 g • 4) Sex: Female • 5) Supplier: Shanghai Lingchang Biotechnology Co., Ltd.
(§5) Conventional treatment was carried out twice a week. When the cell saturation was 80%-90%, the cells were collected, counted and inoculated.
Tumor cell inoculation: 0.2 mL 10×10^6 Human lymphoma TMD8 cells were subcutaneously inoculated into the right back of each nude mouse (PBS:Matrigel=1:1). When the average tumor volume reached 104 mm^3, group administration began. Each group of 6 mice was grouped according to the tumor volume by random grouping software based on Excel.
(§6) The health status and death status of animals were monitored every day. Routine examinations included observing the effects of tumor growth and drug treatment on daily behaviors of animals, such as behavioral activities, food intake and water intake (visual inspection only), weight change (weight measurement three times a week), appearance signs or other abnormal conditions. Based on the number of animals in each group, the number of animal deaths and side effects in each group were recorded.
(§7) Tumor measurement and experimental indexes: the experimental index was to investigate whether the tumor growth is inhibited, delayed or cured. The tumor diameter was measured with vernier caliper three times a week.
(§8) TGI (%), reflecting the tumor growth inhibition rate.
(§9) Relative tumor proliferation rate T/C (%): the calculation formula is as follows:
(§10) T/C %=TRTV/CRTV×100% (TRTV: Relative tumor volume in treatment group; CRTV: Relative tumor volume in negative control group).
(§11) Statistical analysis: Statistical analysis, including the mean value of tumor volume and standard error (SEM) at each time point in each group. […] Three or more groups were compared with one-way ANOVA. If there were significant differences in F values, Games-Howell method was used to test. All data were analyzed with SPSS 17.0. p<0.05 was considered as significant difference.

[6] = Oral bioavailability of earlier compound; conditions: in vivo
[7] = test system: human mantle cell lymphoma REC-1 xenograft; experiment: Anti-tumor activity in vivo, REC-1 xenograft tumor model; parameters: species or system Mice; conditions: for T/C (%) / TGI (%): day 15; for Tumor volume (mm^3) (Day 15): day 15, mean ± SEM
Experimental: as §4, §5
0.2 mL 5×10^6 REC-1 cells were subcutaneously inoculated into the right back of each nude mouse (PBS:Matrigel=1:1). When the average tumor volume reached 100 mm^3, group administration began. Each group of 6 mice was grouped according to the tumor volume by random grouping software based on Excel.
as §6, §7, §8, §9, §10, §11

in vivo = conditions: male, Sprague-Dawley (SD), rat
Experimental: Fourteen SD rats, male, weighing 200-220 g, were randomly divided into 4 groups (4/3 rats in each group) and given the tested compounds by intragastric administration and intravenous administration respectively.
0.5% sodium carboxymethyl cellulose (CMC-Na) containing 1% Tween 80 was formulated for intragastric administration, and 5% DMSO/5% Tween 80/90% normal saline was formulated for intravenous administration.
Fasting for 12 hours and drinking water freely before the test. Eat uniformly 2 hours after administration.
At the above set time point, 0.3 ml of venous blood was taken through the posterior venous plexus of the rat eyeball, placed in a heparinized test tube, centrifuged at 11000 rpm for 5 minutes, and the plasma was separated, frozen in the fridge at −20° C.
The concentration of S17016 in rat plasma was determined by LC/MS/MS.

[8] = Metabolic stability test in human liver microsomes; type: in vitro ADME; conditions: HLM, 0.1 μM drug, 0.33 mg/ml microsomes, NADPH
Experimental: (§12) Liver microsomes were incubated in a 96-well plate, and the volume of each incubated system was 450 μL with a medium of 0.1 M Tris buffer (pH 7.4), including liver microsomes with a final concentration of 0.33 mg/ml, 0.1 μM of tested drugs and 5.0 mM MgCl2, 0.01% DMSO, 0.005% BSA and 1.0 mM NADPH. Incubated at 37° C. for 10 min, NADPH was added to initiate the reaction, and 50 μL was taken out and added with the same volume of methanol to terminate the reaction after 0, 7, 17, 30 and 60 min, respectively.
(§13) S17016 in incubated samples was determined by LC/MS/MS with electrospray ionization (ESI) as the ion source and multi-reaction monitoring (MRM) as the scanning mode.
(§14) The experimental results of metabolic stability in vitro of S17016 in different liver microsomes (HLM: human liver microsomes; RLM: rat liver microsomes; MLM: mouse liver microsomes) were shown in Table 9 and FIG. 3 below.

[9] = Metabolic stability test in rat liver microsomes; type: in vitro ADME; conditions: RLM, 0.1 μM drug, 0.33 mg/ml microsomes, NADPH
Experimental: as §12, §13, §14

[10] = Metabolic stability test in mouse liver microsomes; type: in vitro ADME; conditions: MLM, 0.1 μM drug, 0.33 mg/ml microsomes, NADPH
Experimental: as §12, §13, §14

BTK tyrosine kinase protein, sequence (Q06187 whole entry): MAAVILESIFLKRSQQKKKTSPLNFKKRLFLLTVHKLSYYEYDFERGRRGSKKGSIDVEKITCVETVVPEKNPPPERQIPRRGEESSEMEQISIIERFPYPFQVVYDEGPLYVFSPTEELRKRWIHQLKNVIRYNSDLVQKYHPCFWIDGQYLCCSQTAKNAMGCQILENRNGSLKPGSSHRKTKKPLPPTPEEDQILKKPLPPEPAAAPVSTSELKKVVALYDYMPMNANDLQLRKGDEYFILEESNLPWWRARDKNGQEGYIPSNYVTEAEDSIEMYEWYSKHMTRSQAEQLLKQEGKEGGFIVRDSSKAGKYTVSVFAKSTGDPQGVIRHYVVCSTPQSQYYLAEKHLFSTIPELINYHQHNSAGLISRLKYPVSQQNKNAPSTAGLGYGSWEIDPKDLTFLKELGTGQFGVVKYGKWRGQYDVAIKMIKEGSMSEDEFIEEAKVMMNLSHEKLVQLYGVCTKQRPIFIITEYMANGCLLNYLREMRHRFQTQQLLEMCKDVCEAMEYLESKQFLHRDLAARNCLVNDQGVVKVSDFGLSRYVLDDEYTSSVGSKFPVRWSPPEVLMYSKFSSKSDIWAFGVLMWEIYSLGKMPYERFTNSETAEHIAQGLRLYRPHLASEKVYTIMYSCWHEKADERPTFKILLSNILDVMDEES
BTK, sequence (Q06187 whole entry): as above

Q: Which results are given for `CC#CC(=O)N1CCC[C@H]1c1nc(-c2ccc(C(=O)Nc3ccccn3)cc2)c2c(N)nccn12` [Acalabrutinib]?
A: IC50 [1]: 38200 nM; IC50 [2]: 23 nM

Q: With `C=CC(=O)N[C@@H]1CCc2c(-c3ccc(Oc4ccccc4)cc3)c3c(N)ncnc3n2C1` [Compound S1] as the compound, how does the IC50 [1] read?
A: 94700 nM

Q: And the IC50 [2]?
A: 6 nM

Q: And the stability in metabolism [3]?
A: unstable in metabolism

Q: And the BTK inhibitory activity (BTK)?
A: high BTK inhibitory activity

Q: For `CC#CC(=O)N[C@@H]1CCc2c(-c3ccc(Oc4ccccc4)cc3)c3c(N)ncnc3n2C1` [Compound S10], which IC50 [4] is on record?
A: < 10 nM

Q: What about the IC50 [1] of the same compound?
A: 8720 nM

Q: What about the IC50 [2] of the same compound?
A: 30 nM

Q: And the stability in metabolism [3]?
A: unstable in metabolism

Q: What about the BTK inhibitory activity (BTK) of the same compound?
A: high BTK inhibitory activity

Q: What does the source list for `C=CC(=O)NC1Cn2c(c(-c3ccc(Oc4ccccc4)cc3)c3c(N)ncnc32)C1=C` (stereo not drawn) [Compound S18s, reference compound]?
A: IC50 [1]: 5040 nM; IC50 [2]: 16 nM; T/C (%) ([5]; 15 mg/kg, day 0): 100%; T/C (%) ([5]; 15 mg/kg, day 6): 53.51%; T/C (%) ([5]; 15 mg/kg, day 8): 47.28%; T/C (%) ([5]; 15 mg/kg, day 11): 37.73%; T/C (%) ([5]; 15 mg/kg, day 13): 34.97%; stability in metabolism [3]: unstable in metabolism

Q: For `C=C1c2c(-c3ccc(Oc4ccccc4)cc3)c3c(N)ncnc3n2CC1NC(=O)C#CC` (stereo not drawn) [Compound S19s], which IC50 [2] is on record?
A: 17 nM

Q: And the stability in metabolism [3]?
A: unstable in metabolism

Q: For `C=CC(=O)NC1Cn2c(c(-c3ccc(C(=O)Nc4ccccn4)cc3)c3c(N)ncnc32)C1=C` (stereo not drawn) [Compound S20s], which IC50 [1] is on record?
A: 14300 nM

Q: And the IC50 [2]?
A: 4 nM

Q: And the oral bioavailability [6]?
A: not ideal

Q: With `C=C1c2c(-c3ccc(C(=O)Nc4ccccn4)cc3)c3c(N)ncnc3n2C[C@H]1NC(=O)C#CC` [Compound S17016] as the compound, how does the IC50 [4] read?
A: 0.5 nM

Q: And the IC50 [1]?
A: 3150 nM

Q: And the IC50 [2]?
A: 3 nM

Q: And the “T/C (%)” value ([7]; 15 mg/kg)?
A: 30%

Q: And the “TGI (%)” value ([7]; 15 mg/kg)?
A: 73%

Q: What about the “Tumor volume (mm^3) (Day 15)” value ([7]; 15 mg/kg, 15 mg/kg) of the same compound?
A: 1034 mm^3 and 1034 ± 202 mm^3

Q: What about the “T/C (%)” value ([7]; 30 mg/kg) of the same compound?
A: 19%

Q: What about the “TGI (%)” value ([7]; 30 mg/kg) of the same compound?
A: 83%

Q: What about the “Tumor volume (mm^3) (Day 15)” value ([7]; 30 mg/kg, 30 mg/kg) of the same compound?
A: 680 mm^3 and 680 ± 106 mm^3

Q: What about the Tumor volume ([5]; 5 mg/kg) of the same compound?
A: 912 mm^3 and 912 ± 114 mm^3

Q: What about the “T/C (%)” value ([5]; 5 mg/kg, day 17) of the same compound?
A: 49.27%

Q: What about the “TGI (%)” value ([5]; 5 mg/kg, day 17) of the same compound?
A: 53.78%

Q: And the Tumor volume ([5]; 10 mg/kg)?
A: 553 mm^3 and 553 ± 56 mm^3

Q: And the “T/C (%)” value ([5]; 10 mg/kg, day 0)?
A: 100%

Q: What about the “T/C (%)” value ([5]; 10 mg/kg, day 5) of the same compound?
A: 48.31%

Q: And the “T/C (%)” value ([5]; 10 mg/kg, day 8)?
A: 39.22%

Q: What about the “T/C (%)” value ([5]; 10 mg/kg, day 10) of the same compound?
A: 34.25%

Q: And the “T/C (%)” value ([5]; 10 mg/kg, day 12)?
A: 30.90%

Q: And the “T/C (%)” value ([5]; 10 mg/kg, day 15)?
A: 30.56%

Q: What about the “T/C (%)” value ([5]; 10 mg/kg, day 17) of the same compound?
A: 29.85%

Q: And the “TGI (%)” value ([5]; 10 mg/kg, day 17)?
A: 74.35%

Q: What about the bioavailability (in vivo; in vivo) of the same compound?
A: 24.8%

Q: What about the Vd (in vivo; in vivo, iv, 1 mg/kg) of the same compound?
A: 0.221 L/kg

Q: And the clearance (in vivo; in vivo, iv, 1 mg/kg)?
A: 3.33 mL/min/kg

Q: And the half-life (in vivo; in vivo, iv, 1 mg/kg)?
A: 75.6 min

Q: And the AUC (in vivo; in vivo, po, 3 mg/kg)?
A: 3860 ng·h/mL

Q: What about the Cmax (in vivo; in vivo, po, 3 mg/kg) of the same compound?
A: 2700 ng/mL

Q: And the Tmax (in vivo; in vivo, po, 3 mg/kg)?
A: 15 min

Q: And the “Absolute value of peak area, M0: parent compound” value (shortened to “Absolute value of peak area, M0”) [8]?
A: 20285

Q: What about the “M0: parent compound, share of peak area” value [8] of the same compound?
A: (97.45%)

Q: What about the “Absolute value of peak area, M0” value [9] of the same compound?
A: 12675

Q: And the “M0: parent compound, share of peak area” value [9]?
A: (84.07%)

Q: What about the “Absolute value of peak area, M0” value [10] of the same compound?
A: 19033

Q: And the “M0: parent compound, share of peak area” value [10]?
A: (97.82%)

Q: What does the source list for `C=CC(=O)N1CCC[C@@H](n2nc(-c3ccc(Oc4ccccc4)cc3)c3c(N)ncnc32)C1` [Ibrutinib, reference compound]?
A: IC50 [1]: 12900 nM; IC50 [2]: 5 nM; TGI (%) ([7]; 25 mg/kg): 64%; Tumor volume (mm^3) (Day 15) ([7]; 25 mg/kg, 25 mg/kg): 1323 mm^3 and 1323 ± 195 mm^3; Tumor volume ([5]; 25 mg/kg): 661 mm^3 and 661 ± 168 mm^3; TGI (%) ([5]; 25 mg/kg, day 17): 68.18%; bioavailability (in vivo; plasma, oral, 3 mg/kg): 4%; AUC (in vivo; plasma, po, 3 mg/kg): 57 ng·h/mL
